From ChEMBL document CHEMBL1146939, “Design, synthesis, and biological evaluations of novel oxindoles as HIV-1 non-nucleoside reverse transcriptase inhibitors. Part 2” (Bioorg Med Chem Lett, 2006)
pEC50: −log10 of the molar value.

Columns and labels:
[1] = system: Human immunodeficiency virus 1; experiment: Antiviral activity against HIV1 I135V mutant; format: functional, organism-based
[2] = system: Human immunodeficiency virus 1; experiment: Antiviral activity against HIV1 K103N mutant; format: functional, organism-based
[3] = system: Human immunodeficiency virus 1; experiment: Antiviral activity against HIV1 E138K mutant; format: functional, organism-based
[4] = system: Human immunodeficiency virus 1; experiment: Antiviral activity against HIV1 F227L mutant; format: functional, organism-based
[5] = system: Human immunodeficiency virus 1; experiment: Antiviral activity against HIV1 V106A mutant; format: functional, organism-based
[6] = system: HEK293; experiment: Cytotoxicity against HEK293T cells; format: functional; settings: Homo sapiens
[7] = system: Human immunodeficiency virus 1; experiment: Antiviral activity against HIV1 Y181C mutant; format: functional, organism-based
[8] = system: Human immunodeficiency virus 1; experiment: Antiviral activity against HIV1 V179E mutant; format: functional, organism-based
[9] = system: Human immunodeficiency virus 1; experiment: Antiviral activity against HIV1 I135T mutant; format: functional, organism-based
[10] = system: Human immunodeficiency virus 1; experiment: Antiviral activity against HIV1 Y188L mutant; format: functional, organism-based
[11] = system: Human immunodeficiency virus 1; experiment: Antiviral activity against HIV1 in HEK293T cells; format: functional, organism-based; settings: Human immunodeficiency virus 1, HEK-293T
[12] = system: Human immunodeficiency virus 1; experiment: Antiviral activity against HIV1 F227C mutant; format: functional, organism-based
[13] = system: Human immunodeficiency virus 1; experiment: Antiviral activity against HIV1 L100I mutant; format: functional, organism-based
[14] = Oral bioavailability in […] rat at 50 mg/kg, po; format: ADME, organism-based; settings: in vivo
[15] = system: Rattus norvegicus; experiment: Cmax in […] rat at 50 mg/kg, po normalized to 1 mg/kg; format: ADME, organism-based; set-up: dose 50 mg/kg, route oral; settings: in vivo
[16] = system: Rattus norvegicus; experiment: AUC in […] rat at 50 mg/kg, po normalized to 1 mg/kg; format: ADME, organism-based, Plasma; settings: in vivo

For `C=Cc1cccc([C@H]2C[C@]23C(=O)Nc2ccc(Cl)cc23)n1`, the pEC50 [1] was over 8.52, the pEC50 [2] was 4.95 and the pEC50 [3] was 7.70. For the same compound, the pEC50 [4] was 7.06, the pEC50 [5] was 6.83 and the CC50 [6] was over 10000 nM. The pEC50 [7] was 7.07, the pEC50 [8] was 7.06 and the pEC50 [9] was 7.80. The pEC50 [10] was 4.65, the pEC50 [11] was 8.30 and the pEC50 [12] was 6.24. For the same compound, the pEC50 [13] was 6.75.

Work on `O=C1Nc2ccc(Cl)cc2[C@@]12C[C@@H]2c1cccc(-c2ccco2)n1` yielded a pEC50 [1] of 7.26, a pEC50 [2] of 4.85 and a pEC50 [3] of 7.55. For the same compound, the pEC50 [4] was 5.63, the pEC50 [5] was 5.60 and the CC50 [6] was 7950 nM. It also gave a pEC50 [7] of 6.58, a pEC50 [8] of 7.00 and a pEC50 [9] of 7.12. For the same compound, the pEC50 [10] was 4.64, the pEC50 [11] was 7.74 and the pEC50 [12] was 6.18. The pEC50 [13] was 5.68.

Compound `O=C1Nc2ccc(Cl)cc2[C@@]12C[C@@H]2c1ccccn1` has a pEC50 [1] of 7.59, a pEC50 [2] of under 5.00 and a pEC50 [3] of 7.35. For the same compound, the pEC50 [4] was 7.89, the pEC50 [5] was 6.59 and the bioavailability [14] was 46%. It also gave a CC50 [6] of over 10000 nM, a pEC50 [7] of 5.49 and a pEC50 [8] of 6.05. For the same compound, the Cmax [15] was 68.4 nM, the pEC50 [9] was 6.90 and the AUC [16] was 5.43 µg·min/mL. The pEC50 [10] was under 5.00, the pEC50 [11] was 8.10 and the pEC50 [12] was 6.28. For the same compound, the pEC50 [13] was 6.76.

In the case of `Cn1nnc([C@H]2C[C@]23C(=O)Nc2ccc(Cl)cc23)n1`, the CC50 [6] was over 10000 nM and the pEC50 [11] was 7.26.

With `O=C1Nc2ccc(Cl)cc2[C@@]12C[C@@H]2c1cccn1S(=O)(=O)c1ccccc1` the CC50 [6] was over 10000 nM and the pEC50 [11] was 5.17.

`Cn1nnnc1[C@H]1C[C@]12C(=O)Nc1ccc(Cl)cc12` gave a CC50 [6] of over 10000 nM and a pEC50 [11] of under 5.00.

Compound `O=C1Nc2ccc(Cl)cc2[C@@]12C[C@@H]2c1nccs1` has a CC50 [6] of over 10000 nM and a pEC50 [11] of under 5.00.

With `O=C1Nc2ccc(Cl)cc2[C@@]12C[C@@H]2c1ccccc1Br` the CC50 [6] was over 10000 nM and the pEC50 [11] was under 5.00.

Compound `O=C1Nc2ccc(Cl)cc2[C@@]12C[C@@H]2c1ccco1` has a CC50 [6] of over 10000 nM and a pEC50 [11] of 6.70.

Compound `COc1ccc([C@H]2C[C@]23C(=O)Nc2ccc(Cl)cc23)cc1` has a CC50 [6] of over 10000 nM and a pEC50 [11] of under 5.00.

In the case of `O=C1Nc2ccc(Cl)cc2[C@@]12C[C@@H]2c1cc(Br)cs1`, the CC50 [6] was over 10000 nM and the pEC50 [11] was 5.90.

For `CCc1ccc([C@H]2C[C@]23C(=O)Nc2ccc(Cl)cc23)o1`, the CC50 [6] was over 10000 nM and the pEC50 [11] was 6.67.

Compound `Cc1ccsc1[C@H]1C[C@]12C(=O)Nc1ccc(Cl)cc12` has a CC50 [6] of over 10000 nM and a pEC50 [11] of 6.07.

With `O=C1Nc2ccc(Cl)cc2[C@@]12C[C@@H]2c1ccccc1` the CC50 [6] was over 10000 nM and the pEC50 [11] was 6.61.

Compound `C=Cc1cccc([C@H]2C(C)(C)[C@]23C(=O)Nc2ccc(Cl)cc23)n1` has a pEC50 [1] of 7.54, a pEC50 [2] of 6.16 and a pEC50 [3] of 7.59. The pEC50 [4] was 7.85, the pEC50 [5] was 7.39 and the CC50 [6] was over 10000 nM. For the same compound, the pEC50 [7] was 6.92, the pEC50 [8] was 8.00 and the pEC50 [9] was 7.43. For the same compound, the pEC50 [10] was 5.97, the pEC50 [11] was 8.10 and the pEC50 [12] was 7.06. For the same compound, the pEC50 [13] was 6.64.

`O=C1Nc2ccc(Cl)cc2[C@@]12C[C@@H]2c1ccc(F)cc1` gave a CC50 [6] of over 10000 nM and a pEC50 [11] of under 5.00.

For `CCc1ccc([C@H]2C[C@]23C(=O)Nc2ccc(Cl)cc23)s1`, the CC50 [6] was over 10000 nM and the pEC50 [11] was 6.80.

With `Cn1cccc1[C@H]1C[C@]12C(=O)Nc1ccc(Cl)cc12` the CC50 [6] was over 10000 nM and the pEC50 [11] was under 5.00.

In the case of `O=C1Nc2ccc(Cl)cc2[C@@]12C[C@@H]2c1ccncc1`, the CC50 [6] was over 10000 nM and the pEC50 [11] was under 5.00.

In the case of `O=C1Nc2ccc(Cl)cc2[C@@]12C[C@@H]2c1cc([N+](=O)[O-])cs1`, the CC50 [6] was over 10000 nM and the pEC50 [11] was under 5.00.

`Cn1cccc1-c1cccc([C@H]2C[C@]23C(=O)Nc2ccc(Cl)cc23)n1` showed a CC50 [6] of over 10000 nM and a pEC50 [11] of 6.25.

With `CC1(C)[C@H](c2ccc3ccccc3n2)[C@@]12C(=O)Nc1ccc(Cl)cc12` the pEC50 [1] was 7.33, the pEC50 [2] was 5.63 and the pEC50 [3] was 7.15. It also gave a pEC50 [4] of 6.42, a pEC50 [5] of 6.99 and a CC50 [6] of over 10000 nM. For the same compound, the pEC50 [7] was 6.14, the pEC50 [8] was 6.32 and the pEC50 [9] was 7.26. The pEC50 [10] was under 5.00, the pEC50 [11] was 8.00 and the pEC50 [12] was 5.68. The pEC50 [13] was 7.24.

Work on `O=C1Nc2ccc(Cl)cc2[C@@]12C[C@@H]2c1cccc(-c2ccccc2)n1` yielded a CC50 [6] of over 10000 nM and a pEC50 [11] of 6.86.

Work on `O=C1Nc2ccc(Cl)cc2[C@@]12C[C@@H]2c1ccc2ccccc2n1` yielded a CC50 [6] of over 10000 nM and a pEC50 [11] of 8.00.

Work on `Cc1ccnc2c1NC(=O)c1cccnc1N2C1CC1` [NEVIRAPINE] yielded a CC50 [6] of over 10000 nM, a pEC50 [7] of under 5.00 and a pEC50 [9] of 6.68. It also gave a pEC50 [10] of under 5.00 and a pEC50 [12] of 6.13.

In the case of `O=C1Nc2ccc(Cl)cc2[C@@]12C[C@@H]2c1cc2ccccc2s1`, the CC50 [6] was over 10000 nM and the pEC50 [11] was 5.30.
